Where two headings read alike, the source gives them in different places.
Tests used:
[1] = system: T-47D cells; experiment: T-47D cell proliferation in presence of E2 (antiestrogenicity); format: cell-based; conditions: for inhibition at 1 µM: Homo sapiens, T47D, read-out: Breast cancer cells T-47D (ER+) Antagonist activity (%)
Method: (§1) CellTitter 96® Aqueous One Solution Cell Proliferation Assay was used as an indirect colorimetric measurement of cell proliferation according to the manufacturer's instructions. Briefly, after the treatments, 20 μL of MTS solution was added to each well (100 μL) of the plates and incubated at 37° C. for 2 h (Saos-2) or 4 h (T-47D). The absorbance at 490 nm was then measured with a Thermo max microplate reader (Molecular Devices, Sunnyvale, Calif.). The control (culture media+DMSO) is set to 100% of cell proliferation.
(§2) The cells were plated in 96-well plates at a density of 3 000 cells/well and allowed to attach for 48 h. After this pre-incubation, the inhibitors and the reference compounds diluted in fresh culture media were added to the wells and replaced every 2 days for 7 days of treatment.

[2] = target: T1, steroid sulfatase (STS) (Homo sapiens, UniProt P08842); experiment: Steroid sulfatase (STS) inhibition, [3H]-E1S to [3H]-E1, homogenate of transfected HEK-293 cells; format: biochemical; conditions: for inhibition of STS: homogenates of transfected HEK-293 cells
T1 construct: expressed in transfected cells; host or cells: HEK-293 cells stably transfected with STS (G418 selection), obtained from Dr. Van Luu-The; used as freeze-thaw homogenate
T1 sequence (P08842 22-583): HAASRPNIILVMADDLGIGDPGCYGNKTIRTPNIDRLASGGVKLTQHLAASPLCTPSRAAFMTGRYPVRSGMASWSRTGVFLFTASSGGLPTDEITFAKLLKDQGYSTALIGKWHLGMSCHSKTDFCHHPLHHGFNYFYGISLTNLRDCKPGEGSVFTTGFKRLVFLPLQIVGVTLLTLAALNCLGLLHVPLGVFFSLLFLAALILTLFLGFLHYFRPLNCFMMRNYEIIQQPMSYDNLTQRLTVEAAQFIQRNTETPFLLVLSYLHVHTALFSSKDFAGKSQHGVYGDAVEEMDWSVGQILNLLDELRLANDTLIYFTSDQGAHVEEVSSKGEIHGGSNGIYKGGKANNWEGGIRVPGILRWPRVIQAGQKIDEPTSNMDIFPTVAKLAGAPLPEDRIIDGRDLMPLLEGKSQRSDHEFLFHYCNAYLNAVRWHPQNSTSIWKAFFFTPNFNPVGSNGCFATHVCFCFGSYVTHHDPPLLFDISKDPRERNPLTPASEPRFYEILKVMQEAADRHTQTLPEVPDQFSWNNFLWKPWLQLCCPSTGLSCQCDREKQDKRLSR
Method: To test STS inhibition, we used homogenated HEK-293 cells overexpressing STS and evaluated the capacity of our compounds to inhibit the conversion of [^3H]-E1S into [^3H]-E1. […] This is outlined in FIG. 5.
An enzymatic assay previously described was used for the inhibition of the transformation of estrone sulfate (E1S) to estrone (E1) by STS.^72 Briefly, the transfected HEK-293 cells were homogenized by repeated (5 times) cycles of freezing (−80° C.) and thawing on ice (4° C.). The homogenates were then incubated for 2 h at 37° C. (shaking water bath) with or without inhibitors (0.01 μM-1 μM) in presence of [^3H]-E1S (9 nM), adjusted to 1 μM with E1S, in a Tris-acetate buffer (pH 7.4) containing 5 mM EDTA and 10% glycerol. After the incubation, 1 mL of xylene was added to each tube and the solutions were then centrifuged at 3000 rpm for 20 min to separate the organic ([^3H]-E1) and aqueous ([^3H]-E1S) phases. Once 500 μL of each phase was added to 10 mL of Biodegradable Counting Scintillant, the radioactivity of samples was recorded using a Wallac 1411 Liquid Scintillation Counter. The percentage of inhibition was determined by comparison with the control (buffer+homogenate+[^3H]-E1S) which was set to 0% of inhibition. IC50 value was obtained using GraphPad Prism 5 (GraphPad Software, La Jolla, Calif.).

[3] = system: alkaline phosphatase (ALP) activity in Saos-2 cells; experiment: Alkaline phosphatase (ALP) activity in Saos-2 cells; format: cell-based
Method: ALP is an enzyme that releases inorganic phosphate from different intracellular substrates such as pyrophosphate and pyridoxal 5′-phosphate.^63 The inorganic phosphate is used in the formation of hydroxyapatite crystals which are then inserted in the extracellular protein scaffold to form the solid part of bone tissue.
Saos-2 cells were treated similarly as reported in the cell proliferation assay. The cells were seeded at a density of 2 000 cells/well and were treated with the inhibitors and the reference compounds for 3 days. The alkaline phosphatase (ALP) activity was measured using Sensolyte® pNPP Alkaline Phosphatase Assay Kit *Colorimetric* (AnaSpec, Fremont, Calif.) following the manufacturer's protocol. Briefly, after the 3 days of treatment, the cells were washed twice with washing buffer (provided with the kit) and lysed with 0.2% Triton X-100. The cell lysates were centrifuged and the supernatants were used to determine the ALP activity. The supernatants were deposed in a 96-well plate and incubated 30 min with a p-nitrophenyl phosphate solution (provided with the kit). The absorbance at 405 nm was measured with a Thermo max microplate reader (Molecular Devices, Sunnyvale, Calif.). The control (culture media+DMSO) is set to 100% of alkaline phosphatase activity.

[4] = system: T-47D cells; experiment: T-47D cell proliferation (estrogenicity / cytotoxicity), MTS; format: cell-based; conditions: for estrogenicity / cytotoxicity on T-47D cells / activity at 0.01 µM: 0.01 μM; for estrogenicity / cytotoxicity on T-47D cells: 0.1 μM and 1 μM; for Breast cancer cells T-47D (ER+) Agonist activity (%) / activity at 1 µM: 1 μM; for Breast cancer cells T-47D (ER+) Agonist activity (%): in % of control (100%; 0.1 nM of estradiol); for activity at 0.01 µM / activity at 0.1 µM / activity at 1 µM: Homo sapiens, T47D, control cells set to 100%, mean±SD
Method: The library of phenolic compounds described above was tested on estrogen-sensitive breast cancer T-47D cells.
In Table 1, cell proliferation of control cells is set to 100%. Results are expressed as mean±SD of one experiment in triplicate.
as §1, §2

[5] = system: osteoblast-like Saos-2 cells; experiment: Saos-2 cell proliferation, MTS; format: cell-based; conditions: for Saos-2 cell proliferation, dose response: 1 nM to 1 μM; for Saos-2 cell proliferation, dose response / Saos-2 cell proliferation: 7 days; for Bone cells Saos-2 (ER+) SERM effect Proliferative activity (%): in percentage of control (100%; 0.1 nM of estradiol); for Saos-2 cell proliferation: control 100%
Text: First, we wanted to evaluate their effect on cell proliferation. […] This is outlined in FIG. 8A. […] One of the main roles of osteoblasts in bone tissue is to construct a calcified extracellular matrix.^15 As such, bone formation is not principally due to osteoblasts proliferation but rather osteoblasts maturation into mature osteocytes. […] This is outlined in FIG. 8B.
as §1
Saos-2 cells were suspended in phenol-red free McCoy's 5A medium supplemented with 10% charcoal-stripped FBS, penicillin (100 IU/mL) and streptomycin (100 μg/mL). The cells were seeded in 96-well plates at a density of 3 000 cells/well and allowed to attach. After 24 h, the inhibitors and the reference compounds diluted in fresh culture media were added to the wells and replaced every 2 days for 7 days of treatment.

[6] = system: MCF-7 (ER+) cells; experiment: Proliferative (estrogenic) activity on MCF-7 (ER+) cells; format: cell-based; conditions: 1 μM; 7 days; control 100%
Method: The next step was to determine the presence or absence of estrogenic activity. To do so, cell proliferative assays were carried out on MCF-7 cells. […] Phenols of the corresponding sulfamate library 3-EO and 4-EO are referred to as library 3′-EO and library 4′-EO, respectively.
This cell assay was carried out according to a procedure previously described to determine the estrogenic activity of enzyme inhibitors on the growth of estrogen-sensitive MCF-7 cells.^77 All chemicals tested were first dissolved in DMSO and subsequent dilutions were done in the proper cell culture media. The final concentration of DMSO in the culture medium was 0.1% or less. 3-(4,5-dimethylthiazol-2-yl)-5-(3-carboxymethoxyphenyl)-2-(4-sulfophenyl)-2-H-tetrazolium (MTS) was used as an indirect colorimetric measurement of cell proliferation according to the manufacturer's instructions (Promega, Madison, Wis.). At the end of the treatments, 20 μL of MTS solution was added to each well (100 μL) and the MCF-7 cells were incubated 4 h at 37° C. The absorbance at 490 nm was then measured with a Thermo max microplate reader (Molecular Devices, Sunnyvale, Calif.). The control (culture media+DMSO) is set to 100% of cell proliferation.

[7] = transformation of E1S into E1 in homogenate of HEK-293 cells transfected with STS, read-out: Steroid Sulfatase Inhibition IC50
[8] = homogenated HEK-293 cells overexpressing STS, [3H]-E1S to [3H]-E1, read-out: STS inhibition IC50

## Cc1ccc(CN(Cc2ccc(C(=O)N3CCc4ccc(O)cc4C3)cc2)Cc2ccco2)s1 [Compound 29, [4-({(furan-2-ylmethyl)[(5-methylthiophen-2-yl)methyl]amino}methyl)phenyl](7-hydroxy-3,4-dihydroisoquinolin-2(1H)-yl)methanone]
[1]; 5 μM, E2 0.1 nM
  blockade of the stimulation induced by E2 in T-47D cells: approximately 84%
[1]
  inhibition at 1 µM: 46%
[2]
  inhibition of STS: no significant inhibition
[2]; [7]
  IC50: > 1000 nM
[3]; 0.1 nM
  Bone cells Saos-2 (ER+) SERM effect Alkaline phosphatase activity (%): 114%
[3]; 0.1 nM compound, antagonists 1 μM, 3 days
  stimulation of ALP activity in presence of ICI-164,384 or MPP + PHTPP: completely blocked the stimulation
[3]; 0.1 nM, 3 days, control 100%
  ALP activity in Saos-2 cells: 138%
[4]
  estrogenicity / cytotoxicity on T-47D cells: neither estrogenicity nor cytotoxicity
  Breast cancer cells T-47D (ER+) Agonist activity (%): 0%
  activity at 0.01 µM: 97.1 ± 2.6%
  activity at 0.1 µM: 103 ± 1.8%
  activity at 1 µM: 96.8 ± 2.2%
[5]
  Saos-2 cell proliferation, dose response: apparent dose-dependent response
[5]; 0.1 μM
  Bone cells Saos-2 (ER+) SERM effect Proliferative activity (%): 175%
[5]; 1 μM
  Saos-2 cell proliferation: ~150%
  Bone cells Saos-2 (ER+) SERM effect Proliferative activity (%): 250%

## CCN(Cc1ccc(Br)cc1)Cc1ccc(C(=O)N2CCc3ccc(O)cc3C2)cc1 [3′-EO-13]
[6]
  proliferation of MCF-7 (ER+) cells: 177%

## Cc1ccc(CN(Cc2ccc(C(=O)N3CCc4ccc(OS(N)(=O)=O)cc4C3)cc2)Cc2ccco2)s1 [Compound 33, 2-{[4-({(furan-2-ylmethyl)[(5-methylthiophen-2-yl)methyl]amino}methyl)phenyl]carbonyl}-1,2,3,4-tetrahydroisoquinolin-7-yl sulfamate]
[1]
  inhibition at 1 µM: 25%
[2]; [7]
  IC50: 3.9 nM
[3]; 0.1 nM
  Bone cells Saos-2 (ER+) SERM effect Alkaline phosphatase activity (%): 48%
[4]
  Breast cancer cells T-47D (ER+) Agonist activity (%): 0%
[5]
  Saos-2 cell proliferation, dose response: apparent dose-dependent response
[5]; 0.1 μM
  Bone cells Saos-2 (ER+) SERM effect Proliferative activity (%): 33%
[5]; 1 μM
  Saos-2 cell proliferation: ~150%
  Bone cells Saos-2 (ER+) SERM effect Proliferative activity (%): 211%

## CCN(Cc1ccc(C(=O)N2CCc3ccc(O)cc3C2)cc1)Cc1cccc(Br)c1 [3′-EO-12]
[6]
  proliferation of MCF-7 (ER+) cells: 118%

## NS(=O)(=O)Oc1ccc2c(c1)CN(C(=O)c1ccc(CN(Cc3ccccn3)Cc3ccco3)cc1)CC2 [Compound 32, 2-[(4-{[(furan-2-ylmethyl)(pyridin-2-ylmethyl)amino]methyl}phenyl)carbonyl]-1,2,3,4-tetrahydroisoquinolin-7-yl sulfamate]
[2]; [8]
  IC50: 16.6 nM

## COc1ccc(CN(Cc2ccc(C(=O)N3CCc4ccc(OS(N)(=O)=O)cc4C3)cc2)Cc2ccccn2)cc1 [Compound 34, 2-[(4-{[(4-methoxybenzyl)(pyridin-2-ylmethyl)amino]methyl}phenyl)carbonyl]-1,2,3,4-tetrahydroisoquinolin-7-yl sulfamate]
[2]; [8]
  IC50: 3.9 nM

## O=C(c1ccc(CN(CCO)Cc2ccccc2)cc1)N1CCc2ccc(O)cc2C1 [3′-EO-02]
[6]
  proliferation of MCF-7 (ER+) cells: 135%

## CN(C)CCCN(Cc1ccccc1)Cc1ccc(C(=O)N2CCc3ccc(O)cc3C2)cc1 [3′-EO-05]
[6]
  proliferation of MCF-7 (ER+) cells: 126%

## O=C(c1ccc(CN(Cc2ccccn2)Cc2ccco2)cc1)N1CCc2ccc(O)cc2C1 [Compound 25, (4-{[(furan-2-ylmethyl)(pyridin-2-ylmethyl)amino]methyl}phenyl)(7-hydroxy-3,4-dihydroisoquinolin-2(1H)-yl)methanone]
[2]
  inhibition of STS: no significant inhibition
[4]
  estrogenicity / cytotoxicity on T-47D cells: neither estrogenicity nor cytotoxicity
  activity at 0.01 µM: 104 ± 2.3%
  activity at 0.1 µM: 103 ± 2.5%
  activity at 1 µM: 104 ± 6.5%

## COc1ccc(CN(Cc2ccc(C(=O)N3CCc4ccc(O)cc4C3)cc2)Cc2ccccn2)cc1 [Compound 31, (7-hydroxy-3,4-dihydroisoquinolin-2(1H)-yl)(4-{[(4-methoxybenzyl)(pyridin-2-ylmethyl)amino]methyl}phenyl)methanone]
[2]
  inhibition of STS: no significant inhibition
[4]
  estrogenicity / cytotoxicity on T-47D cells: neither estrogenicity nor cytotoxicity
  activity at 0.01 µM: 105.6 ± 0.6%
  activity at 0.1 µM: 105 ± 7.4%
  activity at 1 µM: 101 ± 7.9%

— patent US9708305B2, “Substituted 1,2,3,4-tetrahydroisoquinoline derivatives for the treatment of hormone-dependent diseases” (UNIVERSITÉ LAVAL, priority 2013, dated 2017)
